Reference: patent publication US4656178A (priority 1985, dated 1987)
Structures can show the parent of a compound that is named as a salt. Where two headings read alike, the source gives them in different places.

Assays:
aconitine arrhythmia [1] = experiment: animal or person; assay type: in vivo, rats; settings: for perdition of narcotized rats prior to administration of aconitine: doses of 20 mg/kg and more; for duration of prevention of aconitine arrhythmia: doses of 5-10 mg/kg; for antiarrhythmic index (LD50/ED50): prophylactic effect, aconitine arrhythmia
Protocol: The assessment of the antiarrhythmic activity of the preparation was effected in acute and chronical experiments on rats, rabbits, cats and dogs. Various experimental models of arrhythmia were also used.
(§1) The atrioventricular arrhythmia caused by aconitine is one of the most reliable models for forecasting the efficiency of the antiarrhythmic action of the novel preparation in clinics. The experiments were conducted on both narcotized and non-narcotized animals. The preparation was administered per os, intramuscularly, intraperitoneally and intravenously 5 to 15 minutes prior to or 3-5 minutes after the administration of aconitine.
In doses of 0.2-0.5 mg/kg the preparation of this invention prevents the appearance of aconitine arrhythmia in 100% of the rats. […] Under similar experimental conditions a preliminary administration of novocainamide in the dose of 60 mg/kg intravenously produced an antiarrhythmic effect in 50% of the animals.

aconitine arrhythmia [2] = assay type: in vivo, rats; settings: for efficacy against developing aconitine arrhythmia: similar conditions, dose not stated
Protocol: as §1
The antiarrhythmic activity of the pharmaceutical composition according to the present invention upon administration thereof against the background of a developing aconitine arrhythmia (therapeutic effect) was studied on 110 narcotized rats. The preparation was intravenously administered at intervals of 3-6 minutes against the background of the originated arrhythmia.

[3] = system: cardiac arrhythmia induced by barium chloride; experiment: cardiac arrhythmia induced by barium chloride; assay type: in vivo, narcotized rats and intact rabbits
Protocol: The study of the antiarrhythmic activity of the preparation according to the present invention on a model of cardiac arrhythmia induced by barium chloride was carried out on 56 narcotized rats and 16 intact rabbits. The preparation of the present invention in the dose of 0.1 mg/kg injected 10 minutes prior to administration of barium prevented the development of arrhythmia in 86.6% of the animals.

[4] = system: arrhythmia caused by electrical irritation; experiment: arrhythmia caused by electrical irritation of the right auricle and apex of the left ventricle; assay type: in vivo, dogs and cats; settings: for onset of antiarrhythmic effect: after intravenous administration; for bradycardia / reduction of arterial pressure: all tested doses
[5] = system: cardiac arrhythmia caused by ligation of the descending branch of the left coronary artery; experiment: cardiac arrhythmia caused by ligation of the descending branch of the left coronary artery (Harris method) in dogs; assay type: in vivo
Protocol: The effect of the preparation according to the present invention on the cardiac arrhythmia caused by ligation of the descending branch of the left coronary artery by the Harris method was studied in experiments on dogs. The preparation according to the present invention was intravenously administered on the first and second post-operative days. Preliminarily, prior to every experiment 30 to 45 minutes before the administration of the preparation the background changes of the dogs' electrocardiogram (ECG) were recorded. […] In 40% thereof a full suppression of ectopic contractions was noticed for 3-3.5 hours, whereafter arrhythmia appeared with the intensity thereof not reaching the initial background during 7 hours.

[6] = system: cardiac conductive system; assay type: in vivo, narcotized rats, cats, intact rabbits and dogs; settings: for rhythm of cardiac contractions: high doses
Excerpt: To investigate the character of the effect produced on the functions of the cardiac conductive system by the preparation according to the present invention, the ECG changes appearing in narcotized rats, cats, intact rabbits and dogs under the action of the preparation of this invention were studied. […] The effect of the preparation is retained for a long time.

[7] = infiltration anesthesia in rabbits (intracutaneous); assay type: in vivo; settings: 0.5% solution
Protocol: The local anesthetic effect of the preparation was studied on 14 intact rabbits. […] The results of the experiments on determination of the ability of the preparation to cause infiltration anesthesia have shown that 10-15 minutes after intracutaneous administration, to rabbits, of 0.01-0.05% and 0.1% solutions of the preparation anesthesia occurs which is characterized by an increased threshold of a pain irritation; the duration of the effect is 20 to 48 hours. Under the same conditions of the experiment, the local anesthetic effect of a 0.5% solution of novocaine lasts for 90 minutes on the average.

frog's heart = experiment: amplitude of cardiac contractions of isolated frog's heart (Schtraube)
Excerpt: To find out a negative inotropic effect on the heart tissue, two series of experiments have been carried out:
(1) the study of the effect of the preparation of this invention on the amplitude of the cardiac contractions of a frog's heart isolated according to Schtraube;

[8] = system: cardiotoxic effect of the preparation; experiment: sodium bicarbonate at cardiotoxic effect of the preparation in dogs

Structure (SMILES): COc1ccc(CCN(C)CCCC(C#N)(c2ccc(OC)c(OC)c2)C(C)C)cc1OC (stereo not drawn) [isoptin]
- prevention of aconitine arrhythmia (aconitine arrhythmia [1]; doses of 0.1-2.5 mg/kg): did not prevent the development of aconitine arrhythmia

Structure (SMILES): CCN(CC)CC(=O)Nc1c(C)cccc1C [lidocaine]
- duration of arrhythmia-arresting effect (aconitine arrhythmia [2]; 5-10 mg/kg, followed by development of arrhythmia): 0.5 to 3 min
- perdition of narcotized rats prior to administration of aconitine (aconitine arrhythmia [1]): perdition of a portion of the narcotized rats
- duration of prevention of aconitine arrhythmia (aconitine arrhythmia [1]): 3 to 5 min

Structure (SMILES): CCN(CC)CCNC(=O)c1ccc(N)cc1 [novocainamide, β-diethylaminoethylamide hydrochloride of p-aminobenzoic acid]
- antiarrhythmic activity, barium chloride model ([3]; comparison with preparation and quinidine): weakest antiarrhythmic activity
- animals with antiarrhythmic effect ([4]; 10 mg/kg): 40%
- duration of antiarrhythmic effect ([4]; 10 mg/kg): 2 to 5 min
- duration of antiarrhythmic effect ([4]; 20-30 mg/kg): 20 to 25 min
- onset of antiarrhythmic effect [4]: 1.0 to 1.5 min
- bradycardia [4]: bradycardia
- reduction of arterial pressure [4]: 20-70 mm Hg
- rats with restored normal sinus rhythm (aconitine arrhythmia [2]; 20 mg/kg): 3 rats out of 6
- duration of restored normal sinus rhythm (average) (aconitine arrhythmia [2]; 20 mg/kg, then stable arrhythmia appeared again): ~10 min
- animals with antiarrhythmic effect (aconitine arrhythmia [2]; 40 mg/kg): 83.3%
- rats with effect only during the first 20 minutes, then stable arrhythmia reappeared (aconitine arrhythmia [2]; 40 mg/kg): 50%
- duration of effect, after which stable arrhythmia reappeared (aconitine arrhythmia [2]; 40 mg/kg, in 50% of the rats): 20 min
- antiarrhythmic index (LD50/ED50) (aconitine arrhythmia [2]; against background of developing aconitine arrhythmia): 6.9
- duration of antiarrhythmic effect ([5]; 40-50 mg/kg): 4 to 7 min
- duration of antiarrhythmic effect ([5]; 70-80 mg/kg): 30 to 60 min
- dose producing the antiarrhythmic effect ([5]; dog, in vivo): 40 to 50 mg/kg
- rhythm of cardiac contractions [6]: sharp disturbances of the rhythm of cardiac contractions
- animals with antiarrhythmic effect (aconitine arrhythmia [1]; 60 mg/kg intravenously, preliminary administration): 50%
- antiarrhythmic index (LD50/ED50) (aconitine arrhythmia [1]): 2.3

Structure (SMILES): CCN(CC)CCOC(=O)c1ccc(N)cc1 [novocaine, reference compound]
- duration of local anesthetic effect (average) [7]: ~90 min

Structure (SMILES): CC(C)NCC(O)COc1cccc2ccccc12 (stereo not drawn) [obzidan, propranolol]
- efficacy against developing aconitine arrhythmia (aconitine arrhythmia [2]): inefficient
- animals in which arrhythmia was developed (after retardation) (aconitine arrhythmia [1]; 5 mg/kg): 60%
- retardation of the time of appearance of aconitine arrhythmia (aconitine arrhythmia [1]; 5 mg/kg, in all test rats): 5 to 8 min

Structure (SMILES): C=C[C@H]1C[N@@]2CC[C@H]1C[C@@H]2[C@@H](O)c1ccnc2ccc(OC)cc12 [quinidine]
- antiarrhythmic effect relative to the preparation ([3]; 10 mg/kg): approximately corresponded to the antiarrhythmic effect produced by the preparation according to the present invention in the dose of 0.1 mg/kg
- animals with antiarrhythmic effect ([4]; 10 mg/kg): 30%
- duration of antiarrhythmic effect ([4]; 10 mg/kg): 2 to 5 min
- duration of antiarrhythmic effect ([4]; 20-30 mg/kg): 20 to 25 min
- onset of antiarrhythmic effect [4]: 2 to 3 min
- bradycardia [4]: bradycardia
- reduction of arterial pressure [4]: 20-70 mm Hg
- antiarrhythmic activity against developing aconitine arrhythmia (aconitine arrhythmia [2]; doses of 2.5, 5, 10, 20 mg/kg): no antiarrhythmic activity
- effect on cardiac arrhythmia ([5]; 5-10 mg/kg): weak effect
- negative inotropic effect compared with the preparation (frog's heart): considerably superior to the preparation of the present invention
- effect on isolated heart (frog's heart; concentration of 10^-4 to 3.10^-4 g/ml): along with a sharp inhibition of the amplitude of cardiac contractions, arrhythmia
- rhythm of cardiac contractions [6]: sharp disturbances of the rhythm of cardiac contractions
- animals with antiarrhythmic effect (aconitine arrhythmia [1]; 20 mg/kg): 50%
- antiarrhythmic index (LD50/ED50) (aconitine arrhythmia [1]): 2.75

Structure (SMILES): O=C(O)O [sodium bicarbonate]
- effect on ECG changes caused by toxic doses of the preparation ([8]; 4% solution, 100 to 200 ml): equalizes distinctly pronounced electrocardiographic changes
- effect on reduced arterial pressure in overdosing of the preparation ([8]; infusion of sodium bicarbonate): levelled
- time to equalization of ECG changes caused by toxic doses of the preparation ([8]; intravenous infusion of 4% solution, 100 to 200 ml, after beginning of infusion): 15 to 30 min
- effect on the inhibition of conductivity by the preparation ([6]; in vivo): diminishes the inhibiting effect of the preparation on conductivity

Structure (SMILES): CCN(CC)CC(=O)Nc1c(C)cc(C)cc1C [trimecaine]
- efficacy against developing aconitine arrhythmia (aconitine arrhythmia [2]): inefficient
- perdition of narcotized rats prior to administration of aconitine (aconitine arrhythmia [1]): perdition of a portion of the narcotized rats
- duration of prevention of aconitine arrhythmia (aconitine arrhythmia [1]): 3 to 5 min
